Source: patent US20190191695A1, “DISSOLVENT COMPOSITION, STABLE UNDER COLD CONDITIONS” (OLEON NV, priority 2016, published 2019)

Columns and labels:
Type in all cases: physicochemical
[1] = Density (viscometer/densimeter SVM 3000)
Procedure: (§1) The equipment used is: • 15 mL flasks • A refrigerated cabinet at 0° C. (Panasonic—MR-154-PE) • 3 mL pipettes • An analytical balance (OHAUS Adventurer Pro AV264C) • A watch glass • A spatula • A tensiometer, brand name K100, sold by KRÜSS GmbH, Borsteler Chaussee 85, 22453 Hamburg, Germany. • A 70 mL crystallizing dish • A platinum blade • KRUSS laboratory software • A viscometer/densimeter SVM 3000—Anton Paar
(§2) The compositions of formulae 19 to 23 and the dispersants of the prior art are tested for surface tension in order to find the wettability thereof, by using a fine plate (called a Wilhelmy plate) connected to an analytical balance. The method of the Wilhelmy blade on the K100 is used. A 70 mL crystallizing dish filled with 30 mL of product to be tested is placed in the K100. The platinum blade is arranged over the product. The KRUSS Laboratory software determines the surface tension of the liquid, via the force felt by the blade in the liquid. The viscosity and the density are also measured.

[2] = Surface tension, Wilhelmy blade method on the K100 tensiometer
Procedure: as §1, §2

[3] = Viscosity (viscometer/densimeter SVM 3000)
Procedure: as §1, §2

Density at 20° C. [1]: 1.03 g/mL
Surface tension at 20° C. [2]: 40 mN/m
Viscosity at 20° C. [3]: 1.7 mm^2/s
Compound: CN1CCCC1=O [NMP, N-methyl-2-pyrrolidone]
